Results published in patent US6468567B1, “Malt beverage having stabilized flavor and methods of production thereof” (Cerveceria Polar, C.A., priority 1997, dated 2002).

Assay: Addition of 1,2-phenylenediamine to wort (chromatogram)
Details: wort + 1,2-phenylenediamine versus wort; FIG. 5
Method: FIG. 5. […] A: wort. B: wort+1,2-phenylenediamine.
A fixed volume (2.2 ml) of 5% 1,2-phenylenediamine (OPD) in methanol was added to a bottle of beer (222 ml) that was then recapped and kept at 20° C. for 12 hours. After 12 hours of reaction, 25 ml of sample were extracted with chloroform (3×8 ml). The chloroform organic phase was removed by centrifugation at 3000 rpm for 10 min, collected, washed with 0.1 M HCl (3×8 ml) in order to remove the unreacted 1,2-phenylenediamine, and semi-dried with magnesium sulfate. The semi-dried organic phase, which contained the hydrophobic quinoxaline derivatives, was then rotavapped to dryness, and the residue resuspended in 250 μl of acetonitrile, and diluted 1/10 (50% solvent A and 50% solvent B) before chromatographic analysis. Hydrophobic quinoxalines were analyzed using Method I (see below). The aqueous phase, containing hydrophilic quinoxalines, was injected directly and analyzed using Method II (see below).
Chromatographic conditions were as follows: a Nova-Pak C18 (Waters) column 3.9×150 mm, 4 μm was used. The mobile phase was: solvent A—95% water (Milli-Q) and 5% acetonitrile; solvent B—90% acetonitrile and 10% water; flow rate 0.7 ml/min. Elution was monitored with a Waters 991 Photodiode Array Detector (200 nm-360 nm).

Compound: Nc1ccccc1N [1,2-phenylenediamine]
- change in the LC18 peak: specific reduction
